Numbers after ± are expanded uncertainties.
Assays:
[1] = wn = mass fraction of the nth substance listed; conditions: 101 kPa, Liquid
[2] = mn = molality of the nth substance listed, in mol/kg; conditions: 101 kPa, Liquid

CO [methanol] + O
[1]
Conditions	mass density, 298.15 K [kg/m3]	mass density, 308.15 K [kg/m3]	mass density, 318.15 K [kg/m3]	mass density, 323.15 K [kg/m3]	viscosity, 298.15 K [mPa·s]	viscosity, 308.15 K [mPa·s]	viscosity, 318.15 K [mPa·s]	viscosity, 323.15 K [mPa·s]
w1 = 0.0806	982.97 ± 1.5	979.73 ± 1.6	976.04 ± 1.7	974.38 ± 1.8	1.084 ± 0.051	0.8665 ± 0.042	0.7017 ± 0.036	0.6375 ± 0.033
w1 = 0.1647	969.63 ± 1.4	966.32 ± 1.6	961.62 ± 1.7	958.75 ± 1.8	1.311 ± 0.061	1.022 ± 0.049	0.8075 ± 0.04	0.73 ± 0.037
w1 = 0.2526	956.2 ± 1.4	951.6 ± 1.6	946.26 ± 1.7	943.31 ± 1.8	1.471 ± 0.068	1.142 ± 0.054	0.8957 ± 0.044	0.8052 ± 0.04
w1 = 0.3446	939.57 ± 1.4	933.64 ± 1.5	931.4 ± 1.7	928 ± 1.8	1.448 ± 0.067	1.203 ± 0.056	0.9309 ± 0.045	0.8288 ± 0.041

CCCCCCCCCCCCOS(=O)(=O)[O-].[Na+] [sodium dodecyl sulfate] + O
[2]
Conditions	mass density [kg/m3]
298.15 K, m1 = 0.03036	998.33 ± 2.3
298.15 K, m1 = 0.04026	998.74 ± 2.3
298.15 K, m1 = 0.04734	999.03 ± 2.3
298.15 K, m1 = 0.05935	999.5 ± 2.3
298.15 K, m1 = 0.0771	1000.24 ± 2.3
298.15 K, m1 = 0.08753	1000.63 ± 2.3
298.15 K, m1 = 0.0992	1001.07 ± 2.3
298.15 K, m1 = 0.1159	1001.71 ± 2.3
308.15 K, m1 = 0.03046	995.13 ± 2.4
308.15 K, m1 = 0.0404	995.48 ± 2.4
308.15 K, m1 = 0.04749	995.73 ± 2.4
308.15 K, m1 = 0.05955	996.13 ± 2.4
308.15 K, m1 = 0.07737	996.76 ± 2.4
308.15 K, m1 = 0.08785	997.09 ± 2.5
308.15 K, m1 = 0.09957	997.46 ± 2.5
308.15 K, m1 = 0.1163	997.99 ± 2.5
318.15 K, m1 = 0.03059	991.17 ± 2.6
318.15 K, m1 = 0.04056	991.47 ± 2.6
318.15 K, m1 = 0.04769	991.69 ± 2.6
318.15 K, m1 = 0.0598	992.03 ± 2.6
318.15 K, m1 = 0.07771	992.57 ± 2.6
318.15 K, m1 = 0.08824	992.85 ± 2.6
318.15 K, m1 = 0.1	993.17 ± 2.6
318.15 K, m1 = 0.1169	993.63 ± 2.6
323.15 K, m1 = 0.03066	988.91 ± 2.6
323.15 K, m1 = 0.04066	989.19 ± 2.6
323.15 K, m1 = 0.0478	989.39 ± 2.6
323.15 K, m1 = 0.05995	989.71 ± 2.6
323.15 K, m1 = 0.0779	990.21 ± 2.6
323.15 K, m1 = 0.08845	990.47 ± 2.6
323.15 K, m1 = 0.1003	990.76 ± 2.6
323.15 K, m1 = 0.1172	991.18 ± 2.6

From the NIST ThermoML archive (doi:10.1021/je2003622)
